Experimental findings from PubChem BioAssay AID493116 (Broad Institute, 2011) are described below.

Activity calls are given as the source filed them.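 How the source made its calls: active means falling signal with an AC50 no greater than ten times the top valid dose tested for that sample; inconclusive means flat response with 30 to 70% inhibition, or poor fit; inactive means activity in the rising direction, and the rest.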 Where only a bound is given, the exact number is not on record here.

As usually defined, the AC50 is the concentration giving half of the maximal activity seen.

The subject of the first test is V. harveyi MM32 AI-2 bioluminescence, 5 h. Description: inhibitors of AI-2-induced luminescence in V. harveyi MM32, dose response, mechanism study for V. harveyi quorum sensing inhibitors, strain MM32 LuxS-null, dry powder, set 4 (AID 493116).
Settings: not given
As for `C=Cn1c(C(=O)O)ccc1-c1ccc(CC)cc1`, the AC50 is 2.34 µM.
The same measure, in the same setting: in the case of `Cn1cnc(S(=O)(=O)Nc2ccccc2Cl)c1` it was > 16 µM (inactive); in that of `O=S(=O)(Nc1cccnc1)c1ccc(Oc2ccccc2)cc1`, 0.538 µM.
`O=S(=O)(Nc1ccccn1)c1ccc(Oc2ccccc2)cc1`: the AC50 is 2.25 µM.
Still for that read-out and setting: in the case of `CCc1ccc(-c2ccc(C(=O)O)n2C)cc1` it was 2.84 µM.
On the same count and under the same terms, next, `C=Cn1c(C(=O)O)ccc1-c1ccc(OC)cc1`: 6.14 µM; `O=C1C=C/C(=C/Br)O1`: 2.29 µM.
Take `Cc1ccccc1NS(=O)(=O)c1cn(C)cn1`: the AC50 was > 16 µM (inactive).
On the same count and under the same terms, next, `Cn1cnc(S(=O)(=O)Nc2ccc(OC(F)(F)F)cc2)c1`: 2.39 µM.

System in the next test: not listed separately
The description is as above. Conditions: V. harveyi MM32 AI-2 bioluminescence, 5 h; at 16 µM (top of the series).
Turning to `Cn1cnc(S(=O)(=O)Nc2ccccc2F)c1`, the activity change, negative = inhibition was -0.646% (inactive).
`COc1ccccc1NS(=O)(=O)c1cn(C)cn1`: the activity change, negative = inhibition was -4.54% (inactive).
With `CN(C)C(=O)c1ccccc1NS(=O)(=O)c1cn(C)cn1`, the activity change, negative = inhibition was 0.78% (inactive).
Take `CC(=O)Nc1ccccc1NS(=O)(=O)c1cn(C)cn1`: the activity change, negative = inhibition was -2.94% (inactive).
On the same count and under the same terms, next, `CCc1ccc(-c2ccc(C(=O)O)n2CC)cc1`: 1.73% (inactive).
